Data on 91 compounds can be found in PubChem BioAssay AID743417 (Broad Institute, 2014).

Inconclusive results are not listed. Active and inactive are the calls of the source.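 The calls were made as follows: active = compounds lowering the luciferase signal with a fitted half-maximal dose at most twice their top valid dose (cut at about 30 µM in these data); inconclusive = flat fits with moderate signal loss, or poor fits; inactive = the rest.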 Bounds are passed on as bounds.

This experiment concerns Clone20 osteoblast Shn3 3'UTR firefly luciferase, 24 h. In words: Schnurri-3 3'UTR-luciferase signal suppressors – cell-based, Clone20 osteoblasts, luminescence, dry powder, set 2, dose response (AID 743417).
Usually AC50 stands for the concentration at which the activity in the assay is half-maximal. For the compound `Cc1ccc(-c2nc(NC(=O)c3nn(C)cc3[N+](=O)[O-])sc2C)cc1C`, the AC50 was 2.25 µM.

With `CCCCC(=O)NC(c1cccc([N+](=O)[O-])c1)c1ccc2cccnc2c1O` (stereo unspecified), the AC50 was 1 µM.

Turning to `CC(CCc1ccccc1)NC(=O)COC(=O)c1ccc(S(C)(=O)=O)c([N+](=O)[O-])c1` (stereo unspecified), the AC50 was 3.34 µM.

`C=CCOC(=O)C1=C(C)N=C2SCCC(=O)N2C1c1cccs1` (stereo unspecified): the AC50 was > 70 µM (inactive).

As for `COC(=O)c1ccccc1NC(=O)c1nc(S(=O)(=O)Cc2ccccc2)ncc1Cl`, the AC50 was 0.428 µM.

Take `O=S1(=O)C=C(Sc2nc3cc(Cl)ccc3o2)c2ccccc21`: the AC50 is less than 0.26 µM.

As for `COc1ccc(C)cc1NS(=O)(=O)c1ccc(-c2cnc(C3CC3)o2)cc1`, the AC50 was 3.76 µM.

As to `CC12CC(O)C3c4ccc(O)cc4CCC3C1CCC2=O` (stereo unspecified), the AC50 is > 70 µM (inactive).

On to `Cc1ccc(C)c(S(=O)(=O)Nc2ccc(-n3cnnn3)cc2)c1`, for which the AC50 is > 70 µM (inactive).

For `CC(C)c1nnc(NC(=O)CCS(=O)(=O)c2nc(-c3cccs3)cc(C(F)(F)F)n2)s1`, the AC50 was 3.02 µM.

For `CC(C)(C)OC(=O)NCc1ccc(CNC(=O)c2nc[nH]c2C(=O)NCc2ccc(CNC(=O)OC(C)(C)C)cc2)cc1`, the AC50 is 5.89 µM.

On to `CCc1c(C)nc2cc(-c3ccc(OC)c(OC)c3)nn2c1NCC1CC1`, for which the AC50 was 5.11 µM.

For the compound `Cc1cc2cc(CN(CC3CCCO3)C(=S)Nc3ccccc3)c(=O)[nH]c2cc1C` (stereo unspecified), the AC50 is 2.91 µM.

Turning to `CCOC(=O)Cn1c(=O)c(-c2cc(Br)ccc2N)nc2ccccc21`, the AC50 is 0.758 µM.

Turning to `COc1ccc(-c2coc3c(C(=O)NCc4ccc(OC)c(OC)c4)cccc23)c(C)c1`, the AC50 was 0.722 µM.

Turning to `Cc1ccc(S(=O)(=O)N2CCN(C(=O)C3CCN(c4ncnc5sc(C)c(C)c45)CC3)CC2)c(C)c1`, the AC50 is 2.12 µM.

As for `Cc1ccc(S(=O)(=O)Nc2cccc3ncccc23)s1`, the AC50 was 3.85 µM.

Consider `O=C(/C=C/Sc1ncn[nH]1)c1ccc(Cl)cc1`, for which the AC50 was 9.76 µM.

For `O=C(/C=C/Nc1ccccc1Br)c1ccccn1`, the AC50 was 1.8 µM.

As for `CC(C)c1ccc(NC(=O)Nc2nc(C(N)COCc3ccccc3)cs2)cc1` (stereo unspecified), the AC50 is 5.99 µM.

Regarding `c1ccc(CNc2ncnc3scc(-c4cccs4)c23)nc1`, the AC50 was 3.59 µM.

With `CC1CCC/C=C/C(=O)c2c(O)cc(O)cc2CC(=O)O1` (stereo unspecified), the AC50 was 4.12 µM.

For `CNc1ccccc1C(C)(C)c1cc(-c2cccc(Br)c2)no1`, the AC50 is 2 µM.

With `CCN(CC)CCCNc1nc2ccccc2c2[nH]c3ccc(OC)cc3c12`, the AC50 is 12.3 µM.

`CN1CCN(C(c2ccc(Br)cc2)c2cc(Cl)c3cccnc3c2O)CC1` (stereo unspecified): the AC50 was 3.61 µM.

In the case of `Cc1cc(Sc2ncnc(N)c2[N+](=O)[O-])ncn1`, the AC50 was 5.7 µM.

As to `Cc1cccc2c(C(=O)N3CCN(c4ccccn4)CC3)cc(-c3cccc(Br)c3)nc12`, the AC50 is 6.48 µM.

As to `O=C(Nc1ccccc1Cc1ccccc1)c1ccccc1NS(=O)(=O)c1ccc(Cl)s1`, the AC50 is 8.18 µM.

As to `Cc1cc(N2CCCCC2)nc(NCc2ccccc2)n1`, the AC50 was 4.01 µM.

As for `CC(=O)N1c2ccc(S(=O)(=O)N3CCC(C(=O)N4CCN(c5cc(Cl)ccc5C)CC4)CC3)cc2CC1C` (stereo unspecified), the AC50 was 3.1 µM.

Take `CC(Sc1nc2ccccc2c(=O)n1C)C(=O)Nc1ccc2c(c1)OCCO2` (stereo unspecified): the AC50 was 1.94 µM.

Take `O=[N+]([O-])c1cccc(S(=O)(=O)NCc2ccncc2)c1`: the AC50 is 3.09 µM.

On to `CCOc1cccc(CNCCc2c(C)[nH]c3ccc(OC(F)(F)F)cc23)c1O`, for which the half-maximal activity concentration (AC50) is 0.611 µM.

For the compound `CC1CCCC(NC(=O)c2cccc(S(=O)(=O)N3CCN(c4ccccc4)CC3)c2)C1C` (stereo unspecified), the AC50 was 3.14 µM.

Regarding `COc1ccc(N2CCN(C(=O)CN3CCN(c4nc(-c5ccc(F)cc5)cs4)CC3)CC2)cc1`, the AC50 was 1.81 µM.

`Cc1ccc2c(c1)nnn2C1CCN(S(=O)(=O)c2ccc(C(=O)N3C(C)CCCC3C)cc2)CC1` (stereo unspecified): the AC50 was 0.695 µM.

As to `CC(C)C(=O)NC(c1cccc([N+](=O)[O-])c1)c1ccc2cccnc2c1O` (stereo unspecified), the AC50 was 2.57 µM.

Turning to `CCOc1ccc(S(=O)(=O)N(C)c2ccc(OCC(=O)Nc3nc4ccccc4s3)cc2)cc1`, the AC50 was 2.82 µM.

With `Cc1nn(Cc2ccc(Cl)cc2)c(C)c1NC(=O)c1cc(C(C)C)on1`, the AC50 was 6.2 µM.

For the compound `Cc1ccc2cc(CN(CC3CCCO3)C(=O)NC3CCCCC3)c(=O)[nH]c2c1C` (stereo unspecified), the AC50 was 4.49 µM.

For `O=[N+]([O-])c1ccc(Sc2cccc3cccnc23)c([N+](=O)[O-])c1`, the AC50 was 1.71 µM.

Regarding `CCc1ccc(OCC(=O)NC(NC(=S)Nc2ccc(Cl)cc2)C(Cl)(Cl)Cl)cc1` (stereo unspecified), the AC50 is 4.96 µM.

On to `CCOC(=O)Oc1c(OC)cc(C(=O)O[C@@H]2C[C@@H]3CN4CCc5c([nH]c6cc(OC)ccc56)[C@H]4C[C@@H]3[C@H](C(=O)OC)[C@H]2OC)cc1OC`, for which the AC50 is 10.7 µM.

Consider `O=C1C(=C(c2ccccc2)N2CCOCC2)Cc2ccccc21`, for which the AC50 is 0.999 µM.

On to `O=C(Nc1cccc(-c2ccc(N3CCCCC3)nn2)c1)C(F)(F)F`, for which the AC50 is 9.07 µM.

As for `Cc1ccc(C)c(S(=O)(=O)N2CCN(Cc3ccc(O)c4ncccc34)CC2)c1`, the AC50 was 2.84 µM.

Take `CC(C)(C)c1ccc(CN2C3=NCCCN3c3ccccc32)cc1`: the AC50 is 0.836 µM.

For `CCn1c(/C=C/c2ccc([N+](=O)[O-])o2)nc2ccccc2c1=O`, the AC50 was 4.51 µM.

As for `CSc1cccc(NS(=O)(=O)c2ccc3c(c2)CCN3C(C)=O)c1`, the AC50 is 1.49 µM.

In the case of `COc1ccc(OC)c(NC(=O)COC(=O)c2c3c(nc4ccccc24)CCCC3)c1`, the AC50 is 8.67 µM.

In the case of `COc1ccc(Nc2nc(N3CCCCC3)c3ccccc3n2)cc1`, the AC50 was 2.11 µM.

Consider `NC(c1csc(NC(=O)Nc2cccc(C(F)(F)F)c2)n1)C1CCCCC1` (stereo unspecified), for which the AC50 was 4.81 µM.

Regarding `NS(=O)(=O)c1ccc(CCNCc2cc(Br)ccc2OCc2ccccc2F)cc1`, the concentration at half-maximal activity (AC50) is 4.65 µM.

Regarding `Cc1ccc(S(=O)(=O)N2CCCCC2)cc1NC(=O)Cn1ncc(Cl)c(Cl)c1=O`, the AC50 is 4.32 µM.

As for `CC(=O)N1CCN(C(=O)CCc2cc(C(C)(C)C)c(O)c(C(C)(C)C)c2)CC1`, the AC50 was 4.46 µM.

For the compound `COc1ccc(-c2nc(NC(=O)C3CC(=O)N(c4ccc5c(c4)OCCO5)C3)sc2C)cc1` (stereo unspecified), the AC50 was 5.24 µM.

As to `CC/C(=C/c1ccccc1)c1cccc2[nH]c3c(OC)cccc3c12`, the AC50 is 32.8 µM.

`NS(=O)(=O)c1ccc(CCNCc2cc(Cl)ccc2OCc2ccccc2)cc1`: the AC50 was 4.46 µM.

Take `CCCOC(=O)c1[nH]c2c(c1C)C(=O)CC(c1cc(OC)c(OC)c(OC)c1)C2` (stereo unspecified): the AC50 is 1.92 µM.

On to `CC(=O)N(CCc1ccccc1)c1ccc2c(c1)C1CC2CCN1C(=O)OCc1ccccc1` (stereo unspecified), for which the AC50 was 14.3 µM.

On to `Cc1c(CCOC(=O)CC23CC4CC(CC(C4)C2)C3)sc[n+]1CC(=O)c1ccc(Br)cc1`, for which the AC50 is 12.9 µM.

On to `CN(Cc1nccn1C)C(=O)c1cc(COc2ccc3ncccc3c2)on1`, for which the AC50 is 6.97 µM.

For the compound `O=C(c1ccoc1)N1CCN(c2cc(-c3cccc(F)c3)nc3cc(-c4cccc(Cl)c4)nn23)CC1`, the AC50 is 9.78 µM.

Regarding `COc1cc(NC(=O)COc2cccc3c2OC(C)(C)C3)cc(OC)c1OC`, the AC50 is 4.38 µM.

For the compound `COc1cc2cc(C(=O)N3CC(COS(C)(=O)=O)c4ccc(O)cc43)[nH]c2c(OC)c1OC` (stereo unspecified), the AC50 is less than 0.26 µM.

`CCN(CC)S(=O)(=O)c1ccc(S(=O)(=O)Nc2c(C)nn(C)c2C)cc1`: the AC50 is 2.24 µM.

Turning to `CCc1nc(N)nc(N)c1-c1ccc(N(C)Cc2ccccc2)c([N+](=O)[O-])c1`, the AC50 is less than 0.26 µM.

Turning to `Cc1cccnc1CN1CCN(C(=O)c2cc(COc3ccc4ncccc4c3)on2)CC1`, the AC50 is 2.1 µM.

For the compound `CN(C)CCNC(=O)c1cccc2nc3cccc(F)c3nc12`, the AC50 is 13.7 µM.

`Cc1ccc(NC(=O)C2CCN(S(=O)(=O)c3ccc4c(c3)NC(=O)C(C)S4)CC2)cc1Cl` (stereo unspecified): the AC50 was 2.83 µM.

`Cc1ccc(NC(=O)c2nc(S(=O)(=O)Cc3ccccc3)ncc2Cl)cc1`: the AC50 is 3.42 µM.

As to `Cc1ccc(C(c2cc(Cl)c3cccnc3c2O)N2CCN(C)CC2)cc1` (stereo unspecified), the AC50 is 5.54 µM.

`O=c1cc(-c2ccc(O)cc2)oc2ccc3ccccc3c12`: the AC50 was 5.41 µM.

As for `Cc1cc(S(=O)(=O)c2ccc(Cl)cc2)nc(S(=O)(=O)c2ccc(Cl)cc2)c1C#N`, the AC50 is 2.83 µM.

In the case of `Cn1c(SCc2cccc(Br)c2)nc2ccccc2c1=O`, the AC50 was 7.68 µM.

As for `Cc1csc(=O)n1CC(=O)OCC(=O)c1c(N)n(C)c(=O)n(C)c1=O`, the AC50 is 27.1 µM.

With `Cc1ccc(S(=O)(=O)N2[C@H](c3cccc(Cl)c3)CC(=O)[C@@H]3CN(S(=O)(=O)c4ccccc4C)[C@H](c4ccc(Cl)cc4)C[C@@H]32)cc1`, the AC50 was 0.289 µM.

In the case of `O=C1ON=C(c2ccccc2)/C1=C/c1ccc(-c2ccccc2[N+](=O)[O-])o1`, the AC50 was 7.21 µM.

Consider `COc1ccccc1N1CCN(C(=O)C2CCCN(S(=O)(=O)c3ccc4c(c3)CCCN4C(C)=O)C2)CC1` (stereo unspecified), for which the AC50 was 2.68 µM.

For `CCCCCCCCNC(C)C(O)c1ccc(SC(C)C)cc1` (stereo unspecified), the AC50 is 3.94 µM.

`O=C(Cn1cc(C(=O)C2CC2)c2ccccc21)Nc1ccccc1Cl`: the AC50 is 3.42 µM.

Turning to `O=C(COC(=O)c1n[nH]c2ccccc12)Nc1ccc(S(=O)(=O)N2CCCC2)cc1`, the concentration at half-maximal activity (AC50) was 5.33 µM.

`CCN(CC)S(=O)(=O)c1cc(NC(=O)CNc2cccc(S(=O)(=O)N3CCOCC3)c2)ccc1C`: the AC50 was 2.97 µM.

Take `CN1/C(=C\C=C2/SC(=S)NC2=O)C(C)(C)c2ccccc21`: the AC50 is 2.6 µM.

As for `Cc1cc(C(=O)COc2cccnc2[N+](=O)[O-])c(C)n1-c1ccccc1`, the AC50 was 34.8 µM.

`CC1(C)CC2CC(C)(CN2c2ncnc3ccc(Br)cc23)C1` (stereo unspecified): the AC50 is 2.11 µM.

`O=C(NNC(=O)c1cccnc1SCc1cccc([N+](=O)[O-])c1)c1ccccn1`: the AC50 is 1.9 µM.

With `Cc1cccc(CS(=O)(=O)c2ncc(Cl)c(C(=O)NCc3ccc4c(c3)OCO4)n2)c1`, the AC50 is 0.938 µM.

Consider `CCCOc1ccccc1C1CC(=O)Nc2cc3c(cc21)OCCO3` (stereo unspecified), for which the AC50 was 3.66 µM.

Turning to `CCN(CC)S(=O)(=O)c1cccc(NC(=O)CNc2cccc(S(=O)(=O)N3CCOCC3)c2)c1`, the AC50 is 0.865 µM.

As to `Cn1c(SCc2ccc(F)cc2Cl)nc2ccccc2c1=O`, the AC50 was 8.65 µM.
